Assay results taken from the NIST ThermoML archive (doi:10.1021/je500804j).

Assay: mn = molality of the nth substance listed, in mol/kg
Conditions: 101 kPa, Liquid, Alternating current cell with electrodes

CCCCCCCC[N+](C)(C)CCCCCC[N+](C)(C)CCCCCCCC.[Br-].[Br-] + O
Conditions | electrical conductivity [S/m]
288.15 K, m1 = 0.00378 | 0.05571
288.15 K, m1 = 0.00747 | 0.1028
288.15 K, m1 = 0.01106 | 0.1443
288.15 K, m1 = 0.01457 | 0.1827
288.15 K, m1 = 0.01799 | 0.2183
288.15 K, m1 = 0.02133 | 0.252
288.15 K, m1 = 0.02458 | 0.2838
288.15 K, m1 = 0.02776 | 0.3124
288.15 K, m1 = 0.03087 | 0.3407
288.15 K, m1 = 0.0339 | 0.3668
288.15 K, m1 = 0.03687 | 0.3917
288.15 K, m1 = 0.03977 | 0.4158
288.15 K, m1 = 0.0426 | 0.4383
288.15 K, m1 = 0.04537 | 0.4604
288.15 K, m1 = 0.04808 | 0.4812
288.15 K, m1 = 0.05073 | 0.5011
288.15 K, m1 = 0.05333 | 0.521
288.15 K, m1 = 0.05587 | 0.5391
288.15 K, m1 = 0.05835 | 0.555
288.15 K, m1 = 0.06079 | 0.5717
288.15 K, m1 = 0.06318 | 0.5855
288.15 K, m1 = 0.06551 | 0.6042
288.15 K, m1 = 0.0678 | 0.6203
288.15 K, m1 = 0.07005 | 0.6375
288.15 K, m1 = 0.07225 | 0.653
288.15 K, m1 = 0.07441 | 0.6677
288.15 K, m1 = 0.07652 | 0.6826
288.15 K, m1 = 0.0786 | 0.6955
288.15 K, m1 = 0.08064 | 0.7092
288.15 K, m1 = 0.08264 | 0.7199
288.15 K, m1 = 0.0846 | 0.7323
288.15 K, m1 = 0.08652 | 0.7423
288.15 K, m1 = 0.08841 | 0.7524
288.15 K, m1 = 0.09027 | 0.7618
288.15 K, m1 = 0.09209 | 0.7705
288.15 K, m1 = 0.09388 | 0.7794
288.15 K, m1 = 0.09564 | 0.7883
288.15 K, m1 = 0.09737 | 0.7958
288.15 K, m1 = 0.09907 | 0.8039
288.15 K, m1 = 0.1007 | 0.812
288.15 K, m1 = 0.1024 | 0.817
288.15 K, m1 = 0.104 | 0.8214
288.15 K, m1 = 0.1056 | 0.8271
288.15 K, m1 = 0.1071 | 0.8323
288.15 K, m1 = 0.1087 | 0.836
288.15 K, m1 = 0.1102 | 0.8402
288.15 K, m1 = 0.1117 | 0.8452
288.15 K, m1 = 0.1131 | 0.8492
288.15 K, m1 = 0.1146 | 0.8528
288.15 K, m1 = 0.116 | 0.8565
293.15 K, m1 = 0.00416 | 0.07018
293.15 K, m1 = 0.00821 | 0.09599
293.15 K, m1 = 0.01215 | 0.154
293.15 K, m1 = 0.01598 | 0.2062
293.15 K, m1 = 0.01972 | 0.2543
293.15 K, m1 = 0.02336 | 0.2987
293.15 K, m1 = 0.02691 | 0.3399
293.15 K, m1 = 0.03037 | 0.3785
293.15 K, m1 = 0.03374 | 0.415
293.15 K, m1 = 0.03704 | 0.4499
293.15 K, m1 = 0.04025 | 0.4818
293.15 K, m1 = 0.04339 | 0.5127
293.15 K, m1 = 0.04645 | 0.5415
293.15 K, m1 = 0.04944 | 0.5687
293.15 K, m1 = 0.05237 | 0.5953
293.15 K, m1 = 0.05523 | 0.6199
293.15 K, m1 = 0.05802 | 0.6436
293.15 K, m1 = 0.06075 | 0.6658
293.15 K, m1 = 0.06342 | 0.6867
293.15 K, m1 = 0.06604 | 0.707
293.15 K, m1 = 0.06859 | 0.7264
293.15 K, m1 = 0.0711 | 0.7446
293.15 K, m1 = 0.07355 | 0.762
293.15 K, m1 = 0.07595 | 0.7782
293.15 K, m1 = 0.0783 | 0.7934
293.15 K, m1 = 0.0806 | 0.8076
293.15 K, m1 = 0.08285 | 0.8213
293.15 K, m1 = 0.08507 | 0.8335
293.15 K, m1 = 0.08723 | 0.8458
293.15 K, m1 = 0.08936 | 0.8569
293.15 K, m1 = 0.09144 | 0.8677
293.15 K, m1 = 0.09348 | 0.8777
293.15 K, m1 = 0.09549 | 0.8873
293.15 K, m1 = 0.09745 | 0.8958
293.15 K, m1 = 0.09938 | 0.9045
293.15 K, m1 = 0.1013 | 0.9127
293.15 K, m1 = 0.1031 | 0.9206
293.15 K, m1 = 0.105 | 0.9279
293.15 K, m1 = 0.1068 | 0.9349
293.15 K, m1 = 0.1085 | 0.9413
293.15 K, m1 = 0.1103 | 0.9468
293.15 K, m1 = 0.1119 | 0.9533
293.15 K, m1 = 0.1136 | 0.9594
293.15 K, m1 = 0.1153 | 0.9653
293.15 K, m1 = 0.1169 | 0.9709
293.15 K, m1 = 0.1185 | 0.9766
293.15 K, m1 = 0.12 | 0.9819
293.15 K, m1 = 0.1216 | 0.9868
293.15 K, m1 = 0.1231 | 0.9919
